Measured values from US12410171B2, “Tropomyosin receptor kinase (TRK) degradation compounds and methods of use” (Cullgen (Shanghai), Inc., priority 2020, dated 2025).
Read-outs that look alike come from different tables or passages of the source.

Key:
[1] = target: T1, TPM3-TRKA fusion protein (Homo sapiens, UniProt P04629); assay: TPM3-TRKA fusion protein levels in KM12 cells (Western blot); type: cell-based; conditions: read-out: Degradation (at 10 nM)
T1 construct: The resulted chimeric proteins always retain the kinase domain of TRK proteins; TPM3 (fusion partner, N-terminal part of tropomyosin alpha-3, P06753); endogenous in cells; host or cells: KM12 colon cancer cells; the other entry of the earlier key: TPM3 (P06753, Tropomyosin alpha-3 chain)
Procedure, shortened: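 TPM3-TRKA levels were assessed by Western blot with chemiluminescent detection and band densitometry, after SDS-PAGE of BCA-normalized RIPA lysates. Before lysis, KM12 cells received DMSO, compounds or matched control compounds at concentrations including 0.1, 1, 10 and 100 nM and 0.4–30 nM. Exposures lasted 4 h, 8–16 h or 16 h.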

[2] = system: KM12 cells; assay: KM12 cell viability (CellTiter-Glo); type: cell-based; conditions: Homo sapiens
Procedure, shortened: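 Three-day exposure of KM12 cells (5000/well, RPMI 1640 with 10% FBS, 37 °C, 5% CO2) to compound dilution series, 3-fold over 8 or 11 points (top 1000 nM in the 8-point format) or 2-fold over 12. CellTiter-Glo readout, with IC50 fitted by nonlinear least-squares regression.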

[3] = 16 h, TPM3-TRKA degradation in KM12 cells at 10 nM compound, category of percentage degradation
[4] = 72 h, KM12 cell viability, CellTiter-Glo, three days treatment, read-out: IC50

T1 sequence (P04629 with tags, fused parts or gaps): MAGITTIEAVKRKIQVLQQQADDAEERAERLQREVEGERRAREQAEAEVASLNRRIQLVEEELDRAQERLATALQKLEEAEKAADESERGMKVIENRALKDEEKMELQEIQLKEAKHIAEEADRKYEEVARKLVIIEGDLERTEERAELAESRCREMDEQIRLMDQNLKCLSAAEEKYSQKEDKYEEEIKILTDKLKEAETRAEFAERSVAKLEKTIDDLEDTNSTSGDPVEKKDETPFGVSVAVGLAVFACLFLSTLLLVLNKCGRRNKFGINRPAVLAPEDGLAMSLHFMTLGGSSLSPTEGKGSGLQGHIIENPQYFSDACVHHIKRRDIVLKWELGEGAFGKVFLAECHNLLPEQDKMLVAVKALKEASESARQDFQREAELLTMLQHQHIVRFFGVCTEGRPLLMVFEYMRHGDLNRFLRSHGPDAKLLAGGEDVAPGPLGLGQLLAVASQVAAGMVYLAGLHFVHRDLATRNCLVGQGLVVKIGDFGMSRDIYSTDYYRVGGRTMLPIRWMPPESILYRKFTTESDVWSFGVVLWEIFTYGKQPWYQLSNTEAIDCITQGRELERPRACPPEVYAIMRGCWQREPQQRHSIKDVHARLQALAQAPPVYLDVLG

Row | percent degradation of TPM3-TRKA protein at 0.01 µM [1, 3] [%] | SMILES | IC50 [2, 4] [nM] | percent degradation of TPM3-TRKA protein at 0.01 µM ([1]; KM12, 16 h) [%] | IC50 ([2]; KM12, 72 h) [nM]
1 | 50 to 80 | O=C1CCC(n2c(=O)n(CCCN3CCN(c4cccc(-c5cnc6ccc(N7CCC[C@@H]7c7cccc(F)c7)nn56)n4)CC3)c3ccccc32)C(=O)N1 (stereo partly drawn) [TR-228, 3-(3-(3-(4-(6-(6-((R)-2-(3-fluorophenyl)pyrrolidin-1-yl)imidazo[1,2-b]pyridazin-3-yl)pyridin-2-yl)piperazin-1-yl)propyl)-2-oxo-2,3-dihydro-1H-benzo[d]imidazol-1-yl)piperidine-2,6-dione] | 56.3 | – | –
2 | > 80 | O=C1CCC(N2C(=O)c3ccc(NC(=O)CN4CCN(c5cccc(-c6cnc7ccc(N8CCC[C@@H]8c8cccc(F)c8)nn67)n5)CC4)cc3C2=O)C(=O)N1 (stereo partly drawn) [TR-233, N-(2-(2,6-dioxopiperidin-3-yl)-1,3-dioxoisoindolin-5-yl)-2-(4-(6-(6-((R)-2-(3-fluorophenyl)pyrrolidin-1-yl)imidazo[1,2-b]pyridazin-3-yl)pyridin-2-yl)piperazin-1-yl)acetamide] | 5 | – | –
3 | > 80 | O=C1CCC(N2C(=O)c3ccc(CN4CC(N5CCN(c6cccc(-c7cnc8ccc(N9CCC[C@@H]9c9cccc(F)c9)nn78)n6)CC5)C4)cc3C2=O)C(=O)N1 (stereo partly drawn) [TR-237, 2-(2,6-dioxopiperidin-3-yl)-5-((3-(4-(6-(6-((R)-2-(3-fluorophenyl)pyrrolidin-1-yl)imidazo[1,2-b]pyridazin-3-yl)pyridin-2-yl)piperazin-1-yl)azetidin-1-yl)methyl)isoindoline-1,3-dione] | 138 | – | –
4 | > 80 | Cn1c(=O)n(C2CCC(=O)NC2=O)c2cccc(C#CCCN3CCN(c4cccc(-c5cnc6ccc(N7CCC[C@@H]7c7cccc(F)c7)nn56)n4)CC3)c21 (stereo partly drawn) [TR-239, 3-(4-(4-(4-(6-(6-((R)-2-(3-Fluorophenyl)pyrrolidin-1-yl)imidazo[1,2-b]pyridazin-3-yl)pyridin-2-yl)piperazin-1-yl)but-1-yn-1-yl)-3-methyl-2-oxo-2,3-dihydro-1H-benzo[d]imidazol-1-yl)piperidine-2,6-dione] | 45.9 | – | –
5 | > 80 | Cn1c(=O)n(C2CCC(=O)NC2=O)c2cccc(CCCN3CCN(c4cccc(-c5cnc6ccc(N7CCC[C@@H]7c7cccc(F)c7)nn56)n4)CC3)c21 (stereo partly drawn) [TR-240, 3-(4-(3-(4-(6-(6-((R)-2-(3-fluorophenyl)pyrrolidin-1-yl)imidazo[1,2-b]pyridazin-3-yl)pyridin-2-yl)piperazin-1-yl)propyl)-3-methyl-2-oxo-2,3-dihydro-1H-benzo[d]imidazol-1-yl)piperidine-2,6-dione] | 16.1 | – | –
6 | > 80 | O=C1CCC(n2c(=O)oc3c(NCCN4CCN(c5cccc(-c6cnc7ccc(N8CCC[C@@H]8c8cccc(F)c8)nn67)n5)CC4)cccc32)C(=O)N1 (stereo partly drawn) [TR-247, 3-(7-((2-(4-(6-(6-((R)-2-(3-Fluorophenyl)pyrrolidin-1-yl)imidazo[1,2-b]pyridazin-3-yl)pyridin-2-yl)piperazin-1-yl)ethyl)amino)-2-oxobenzo[d]oxazol-3 (2H)-yl)piperidine-2,6-dione] | 8.2 | – | –
7 | > 80 | O=C1CCC(N2C(=O)c3ccc(CN4CC(CN5CCN(c6ccc(C(=O)Nc7n[nH]c8ccc(Cc9cc(F)cc(F)c9)cc78)c(NC7CCOCC7)c6)CC5)C4)cc3C2=O)C(=O)N1 (stereo not shown) [TR-249, N-(5-(3,5-difluorobenzyl)-1H-indazol-3-yl)-4-(4-((1-((2-(2,6-dioxopiperidin-3-yl)-1,3-dioxoisoindolin-5-yl)methyl)azetidin-3-yl)methyl)piperazin-1-yl)-2-((tetrahydro-2H-pyran-4-yl)amino)benzamide] | 15.1 | – | –

Second part, the compound before the results:

Row | SMILES | percent degradation of TPM3-TRKA protein at 0.01 µM [1, 3] [%] | IC50 [2, 4] [nM] | percent degradation of TPM3-TRKA protein at 0.01 µM ([1]; KM12, 16 h) [%] | IC50 ([2]; KM12, 72 h) [nM]
8 | O=C1CCC(N2C(=O)Cc3c(NCCN4CCN(c5cccc(-c6cnc7ccc(N8CCC[C@@H]8c8cccc(F)c8)nn67)n5)CC4)cccc32)C(=O)N1 (stereo partly drawn) [TR-236, 3-(4-((2-(4-(6-(6-((R)-2-(3-Fluorophenyl)pyrrolidin-1-yl)imidazo[1,2-b]pyridazin-3-yl)pyridin-2-yl)piperazin-1-yl)ethyl)amino)-2-oxoindolin-1-yl)piperidine-2,6-dione] | < 50 | 99.2 | – | –
9 | Cn1c(=O)n(C2CCC(=O)NC2=O)c2cccc(C#CCN3CCN(c4cccc(-c5cnc6ccc(N7CCC[C@@H]7c7cccc(F)c7)nn56)n4)CC3)c21 (stereo partly drawn) [TR-238, 3-(4-(3-(4-(6-(6-((R)-2-(3-Fluorophenyl)pyrrolidin-1-yl)imidazo[1,2-b]pyridazin-3-yl)pyridin-2-yl)piperazin-1-yl)prop-1-yn-1-yl)-3-methyl-2-oxo-2,3-dihydro-1H-benzo[d]imidazol-1-yl)piperidine-2,6-dione] | – | – | > 80 | 16.2
10 | Cn1c(=O)n(C2CCC(=O)NC2=O)c2cccc(CCCCN3CCN(c4cccc(-c5cnc6ccc(N7CCC[C@@H]7c7cccc(F)c7)nn56)n4)CC3)c21 (stereo partly drawn) [TR-241, 3-(4-(4-(4-(6-(6-((R)-2˜ (3-fluorophenyl)pyrrolidin-1-yl)imidazo[1,2-b]pyridazin-3-yl)pyridin-2-yl)piperazin-1-yl)butyl)-3-methyl-2-oxo-2,3-dihydro-1H-benzo[d]imidazol-1-yl)piperidine-2,6-dione] | – | – | > 80 | 6.1
11 | Cn1c(=O)n(C2CCC(=O)NC2=O)c2cccc(OCCN3CCN(c4cccc(-c5cnc6ccc(N7CCC[C@@H]7c7cccc(F)c7)nn56)n4)CC3)c21 (stereo partly drawn) [TR-244, 3-(4˜ (2-(4-(6-(6-((R)-2-(3-Fluorophenyl)pyrrolidin-1-yl)imidazo[1,2-b]pyridazin-3-yl)pyridin-2-yl)piperazin-1-yl)ethoxy)-3-methyl-2-oxo-2,3-dihydro-1H-benzo[d]imidazol-1-yl)piperidine-2,6-dione] | < 50 | 298 | – | –
12 | Cn1c(=O)n(C2CCC(=O)NC2=O)c2ccc(OCCN3CCN(c4cccc(-c5cnc6ccc(N7CCC[C@@H]7c7cccc(F)c7)nn56)n4)CC3)cc21 (stereo partly drawn) [TR-246, 3-(5-(2-(4-(6-(6-((R)-2-(3-Fluorophenyl)pyrrolidin-1-yl)imidazo[1,2-b]pyridazin-3-yl)pyridin-2-yl)piperazin-1-yl)ethoxy)-3-methyl-2-oxo-2,3-dihydro-1H-benzo[d]imidazol-1-yl)piperidine-2,6-dione] | > 80 | 101 | – | –
13 | O=C1CCC(N2C(=O)c3ccc(CN4CC(CN5CCN(c6cccc(-c7cnc8ccc(N9CCC[C@@H]9c9cccc(F)c9)nn78)n6)CC5)C4)cc3C2=O)C(=O)N1 (stereo partly drawn) [TR-248, 2-(2,6-Dioxopiperidin-3-yl)-5-((3-((4-(6-(6-((R)-2-(3-fluorophenyl)pyrrolidin-1-yl)imidazo[1,2-b]pyridazin-3-yl)pyridin-2-yl)piperazin-1-yl)methyl)azetidin-1-yl)methyl)isoindoline-1,3-dione] | > 80 | 27.4 | – | –
14 | Cn1c(=O)n(C2CCC(=O)NC2=O)c2ccc(N3CC(CN4CCN(c5cccc(-c6cnc7ccc(N8CCC[C@@H]8c8cccc(F)c8)nn67)n5)CC4)C3)cc21 (stereo partly drawn) [TR-250, 3-(5-(3-((4-(6-(6-((R)-2-(3-fluorophenyl)pyrrolidin-1-yl)imidazo[1,2-b]pyridazin-3-yl)pyridin-2-yl)piperazin-1-yl)methyl)azetidin-1-yl)-3-methyl-2-oxo-2,3-dihydro-1H-benzo[d]imidazol-1-yl)piperidine-2,6-dione] | > 80 | 16.1 | – | –
